From ChEMBL document CHEMBL1201862, “PubChem BioAssay data set” (2004)
Blank lines part the entries; values can stand above or below the compound they belong to. The source made the active and inactive calls.

Experiments:
[1] = biological target: T1, Aminopeptidase N (Plasmodium falciparum FcB1/Columbia, UniProt O96935); test: malaria alanyl aminopeptidase activity blockers – biochemical, fluorogenic H-Leu-NHMec substrate, 1536-well (AID 1445); design: species or system Plasmodium falciparum 3D7, 3D7
T1 sequence (O96935 whole entry): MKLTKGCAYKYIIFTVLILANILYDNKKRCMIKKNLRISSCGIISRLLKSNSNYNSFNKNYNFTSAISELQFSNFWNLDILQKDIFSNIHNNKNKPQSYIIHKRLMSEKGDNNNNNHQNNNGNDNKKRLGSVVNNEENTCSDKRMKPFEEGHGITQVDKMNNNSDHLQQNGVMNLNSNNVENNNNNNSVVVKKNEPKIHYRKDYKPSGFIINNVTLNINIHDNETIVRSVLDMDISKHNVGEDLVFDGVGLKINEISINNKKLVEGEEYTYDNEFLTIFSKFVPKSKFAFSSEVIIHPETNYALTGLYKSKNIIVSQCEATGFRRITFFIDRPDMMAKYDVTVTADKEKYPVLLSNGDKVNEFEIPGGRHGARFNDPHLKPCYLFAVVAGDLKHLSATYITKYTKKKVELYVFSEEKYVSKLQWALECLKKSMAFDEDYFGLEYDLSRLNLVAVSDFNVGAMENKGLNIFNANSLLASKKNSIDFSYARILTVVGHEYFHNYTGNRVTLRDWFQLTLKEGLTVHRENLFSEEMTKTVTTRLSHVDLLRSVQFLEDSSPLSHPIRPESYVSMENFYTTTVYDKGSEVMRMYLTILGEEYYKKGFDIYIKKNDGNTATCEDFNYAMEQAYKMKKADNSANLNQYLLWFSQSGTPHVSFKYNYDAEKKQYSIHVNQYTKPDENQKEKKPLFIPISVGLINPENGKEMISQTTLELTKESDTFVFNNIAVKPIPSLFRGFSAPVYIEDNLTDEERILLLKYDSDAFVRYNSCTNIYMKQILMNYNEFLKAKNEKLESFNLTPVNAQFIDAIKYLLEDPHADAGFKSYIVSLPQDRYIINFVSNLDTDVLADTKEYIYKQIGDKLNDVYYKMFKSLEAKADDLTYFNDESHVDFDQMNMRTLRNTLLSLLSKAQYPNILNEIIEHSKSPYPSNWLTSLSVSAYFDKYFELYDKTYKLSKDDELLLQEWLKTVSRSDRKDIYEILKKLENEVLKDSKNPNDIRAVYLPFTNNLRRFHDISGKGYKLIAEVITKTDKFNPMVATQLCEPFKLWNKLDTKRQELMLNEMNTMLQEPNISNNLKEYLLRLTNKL

[2] = Luminescence Cell-Based Dose Retest to Confirm Inhibitors of Cancer Stem Cells. [Related pubchem assays (depositor defined):AID2717, AID2721]; type: functional; conditions: Homo sapiens
[3] = biological target: Eukaryotic translation initiation factor 4E (Mus musculus, UniProt P63073); test: blockers of eIF4G binding by eIF4E – biochemical, TR-FRET, dose response (AID 855); type: functional;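 further: potency for disrupting eIF4E binding to eIF4GI seen as loss of FRET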
Chain of Eukaryotic translation initiation factor 4E (P63073 whole entry): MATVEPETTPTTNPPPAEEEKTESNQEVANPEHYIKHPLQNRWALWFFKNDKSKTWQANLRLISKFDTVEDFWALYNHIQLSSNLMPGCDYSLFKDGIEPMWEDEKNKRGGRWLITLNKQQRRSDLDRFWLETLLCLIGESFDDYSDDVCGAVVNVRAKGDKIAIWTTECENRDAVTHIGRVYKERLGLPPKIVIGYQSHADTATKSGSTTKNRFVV

[4] = biological target: Tumor necrosis factor (Homo sapiens, UniProt P01375); test: analog potency on TNFa NF-kB signaling – cell-based, revised, SAR follow-up (AID 2337); type: functional
Chain of Tumor necrosis factor (P01375 whole entry): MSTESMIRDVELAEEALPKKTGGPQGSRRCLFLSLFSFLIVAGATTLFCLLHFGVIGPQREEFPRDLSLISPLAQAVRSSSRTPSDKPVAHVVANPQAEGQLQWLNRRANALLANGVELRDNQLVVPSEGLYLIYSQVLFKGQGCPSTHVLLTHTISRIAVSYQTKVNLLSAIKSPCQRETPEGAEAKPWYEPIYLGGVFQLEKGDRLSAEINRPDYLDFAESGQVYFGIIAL

[5] = test system: HEK293; test: cells; type: functional, cell-based; conditions: Homo sapiens
[6] = test system: HEK293; test: cells; type: functional, cell-based; conditions: Homo sapiens; remark: listed apart in the source
[7] = test system: HEK293; test: inhibition of NOD1-driven NF-kB reporter – cell-based, luminescence, uHTS, primary screen (AID 1578); type: functional; conditions: Homo sapiens
[8] = test system: HEK293; test: cells; conditions: Homo sapiens
[9] = test system: HEK293; test: NOD2 signaling inhibitors in MDP-stimulated cells, cell-based, uHTS, luminescence (AID 2001); type: functional; conditions: Homo sapiens
[10] = HEK-293T viability loss after treatment – luminescence, T-cell screen hits, cytotoxicity control for TCR NF-kB inhibitor project, dose response (AID 489026); type: functional, cell-based;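 further: cells exposed to compound about 14 hours before the viability readout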
[11] = biological target: T2, Nucleotide-binding oligomerization domain-containing protein 1 (Homo sapiens, UniProt Q9Y239); test: blockers of NOD1 pathway activity – revised, SAR follow-up (AID 2333); type: functional
T2 sequence (Q9Y239 whole entry): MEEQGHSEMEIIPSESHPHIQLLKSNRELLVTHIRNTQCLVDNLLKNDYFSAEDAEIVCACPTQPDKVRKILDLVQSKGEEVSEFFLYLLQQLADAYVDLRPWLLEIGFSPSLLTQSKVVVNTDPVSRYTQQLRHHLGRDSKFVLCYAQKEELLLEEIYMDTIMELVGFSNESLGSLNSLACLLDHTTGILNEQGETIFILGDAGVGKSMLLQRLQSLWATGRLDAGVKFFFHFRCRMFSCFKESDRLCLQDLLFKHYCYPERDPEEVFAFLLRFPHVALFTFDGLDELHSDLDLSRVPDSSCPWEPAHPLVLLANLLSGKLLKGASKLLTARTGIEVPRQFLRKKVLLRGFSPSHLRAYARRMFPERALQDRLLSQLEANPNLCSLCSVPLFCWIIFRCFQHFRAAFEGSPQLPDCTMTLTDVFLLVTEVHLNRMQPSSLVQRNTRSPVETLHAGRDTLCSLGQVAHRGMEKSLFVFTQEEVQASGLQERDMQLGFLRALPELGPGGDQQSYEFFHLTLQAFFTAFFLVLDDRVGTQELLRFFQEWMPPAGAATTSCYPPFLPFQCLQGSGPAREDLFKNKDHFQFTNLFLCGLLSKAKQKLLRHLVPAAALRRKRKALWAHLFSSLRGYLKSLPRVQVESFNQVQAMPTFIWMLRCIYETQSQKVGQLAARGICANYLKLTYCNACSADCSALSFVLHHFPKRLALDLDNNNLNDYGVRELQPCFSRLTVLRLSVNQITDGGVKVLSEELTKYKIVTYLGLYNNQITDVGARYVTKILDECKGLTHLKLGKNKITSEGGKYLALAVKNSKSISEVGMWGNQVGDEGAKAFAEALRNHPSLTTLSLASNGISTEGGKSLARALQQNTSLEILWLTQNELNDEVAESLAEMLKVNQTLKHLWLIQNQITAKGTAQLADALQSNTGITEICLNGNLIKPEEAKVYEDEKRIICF

[12] = biological target: T3, Coagulation factor XII (Homo sapiens, UniProt P00748); test: activated coagulation factor XII inhibitor potency, concentration-effect curve, cell-free (AID 716); type: functional
T3 sequence (P00748 whole entry): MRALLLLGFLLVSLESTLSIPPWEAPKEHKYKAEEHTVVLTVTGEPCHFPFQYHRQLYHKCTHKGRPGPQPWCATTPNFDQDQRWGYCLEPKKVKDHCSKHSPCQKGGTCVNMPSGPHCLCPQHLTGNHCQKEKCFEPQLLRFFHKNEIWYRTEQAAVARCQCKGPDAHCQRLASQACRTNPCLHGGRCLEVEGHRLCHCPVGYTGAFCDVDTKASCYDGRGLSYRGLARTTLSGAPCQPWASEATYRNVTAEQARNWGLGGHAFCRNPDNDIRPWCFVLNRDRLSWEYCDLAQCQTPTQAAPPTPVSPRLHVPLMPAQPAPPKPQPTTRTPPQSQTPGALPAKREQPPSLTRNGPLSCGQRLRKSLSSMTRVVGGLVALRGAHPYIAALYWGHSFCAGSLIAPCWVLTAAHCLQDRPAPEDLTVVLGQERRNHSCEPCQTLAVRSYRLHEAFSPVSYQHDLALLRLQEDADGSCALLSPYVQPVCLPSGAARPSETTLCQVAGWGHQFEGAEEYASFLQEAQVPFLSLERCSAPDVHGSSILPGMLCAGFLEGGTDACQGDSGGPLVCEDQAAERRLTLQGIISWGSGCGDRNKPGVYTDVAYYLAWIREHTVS

[13] = biological target: DNA dC->dU-editing enzyme APOBEC-3G (Homo sapiens, UniProt Q9HC16); type: functional;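 further: Dose-response counterscreen measuring inhibition of APOBEC3G DNA deaminase activity, run while confirming APOBEC3A inhibitors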
Chain of DNA dC->dU-editing enzyme APOBEC-3G (Q9HC16 whole entry): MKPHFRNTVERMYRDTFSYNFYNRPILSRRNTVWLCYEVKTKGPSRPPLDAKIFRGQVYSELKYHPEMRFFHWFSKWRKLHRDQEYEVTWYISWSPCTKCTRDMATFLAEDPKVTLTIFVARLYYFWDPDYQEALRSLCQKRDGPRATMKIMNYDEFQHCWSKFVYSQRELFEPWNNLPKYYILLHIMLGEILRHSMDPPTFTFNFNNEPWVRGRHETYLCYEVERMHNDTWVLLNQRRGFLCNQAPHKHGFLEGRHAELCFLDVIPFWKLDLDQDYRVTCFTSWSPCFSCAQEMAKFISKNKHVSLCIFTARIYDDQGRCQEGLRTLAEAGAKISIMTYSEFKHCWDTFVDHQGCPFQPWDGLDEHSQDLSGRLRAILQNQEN

[14] = biological target: DNA dC->dU-editing enzyme APOBEC-3A (Homo sapiens, UniProt P31941); test: Dose Response confirmation of small molecule APOBEC3A DNA Deaminase Inhibitors via a fluorescence-based single-stranded DNA deaminase assay. [Related pubchem assays (depositor defined):AID493011, AID493024]; type: functional
Chain of DNA dC->dU-editing enzyme APOBEC-3A (P31941 whole entry): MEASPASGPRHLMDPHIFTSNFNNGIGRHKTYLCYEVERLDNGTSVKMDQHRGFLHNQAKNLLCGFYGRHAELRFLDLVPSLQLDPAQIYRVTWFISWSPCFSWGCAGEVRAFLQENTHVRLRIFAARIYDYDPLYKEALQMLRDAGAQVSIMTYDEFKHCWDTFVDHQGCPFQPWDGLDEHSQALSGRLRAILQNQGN

[15] = biological target: T4, Protein Rev (Human immunodeficiency virus type 1 group M subtype B (isolate WMJ22)(HIV-1), UniProt P05866); test: inhibitors of Rev protein–RRE RNA complex – biochemical, protein-RNA interaction, dose response (AID 842); design: species or system Human immunodeficiency virus 1
T4 sequence (P05866 whole entry): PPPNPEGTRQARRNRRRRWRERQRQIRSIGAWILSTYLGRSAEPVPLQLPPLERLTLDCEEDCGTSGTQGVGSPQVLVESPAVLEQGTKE

[16] = biological target: Large T antigen (Simian virus 40, UniProt P03070); type: functional, Betapolyomavirus macacae;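 further: Confirmatory-stage PubChem screen for compounds that inhibit SV40 T antigen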
Chain of Large T antigen (P03070 whole entry): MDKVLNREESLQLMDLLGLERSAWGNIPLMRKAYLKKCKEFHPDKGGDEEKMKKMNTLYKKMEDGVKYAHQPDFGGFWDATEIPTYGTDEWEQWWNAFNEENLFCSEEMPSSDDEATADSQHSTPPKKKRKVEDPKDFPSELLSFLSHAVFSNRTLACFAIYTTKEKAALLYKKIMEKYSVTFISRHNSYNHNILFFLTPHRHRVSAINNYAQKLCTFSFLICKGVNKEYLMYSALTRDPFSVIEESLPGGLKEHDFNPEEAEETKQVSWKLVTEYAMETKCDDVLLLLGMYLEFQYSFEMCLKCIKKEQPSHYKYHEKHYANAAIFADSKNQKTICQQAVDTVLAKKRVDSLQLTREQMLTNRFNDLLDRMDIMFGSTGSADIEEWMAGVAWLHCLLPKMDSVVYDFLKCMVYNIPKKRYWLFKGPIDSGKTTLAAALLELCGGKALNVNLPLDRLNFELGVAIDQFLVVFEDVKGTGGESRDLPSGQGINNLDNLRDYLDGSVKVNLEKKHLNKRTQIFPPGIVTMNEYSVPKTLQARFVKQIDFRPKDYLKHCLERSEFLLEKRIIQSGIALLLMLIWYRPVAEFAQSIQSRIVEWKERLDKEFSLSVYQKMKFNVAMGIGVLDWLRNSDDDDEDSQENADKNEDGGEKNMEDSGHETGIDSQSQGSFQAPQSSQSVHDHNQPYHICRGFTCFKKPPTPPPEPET

[17] = HEK-293T cell viability reduction – luminescence, B-cell screen hits, cytotoxicity control for BCR NF-kB inhibitor project, dose response (AID 489021); type: functional, cell-based;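 further: HEK-293T cells carrying an NF-kB luciferase reporter; cells exposed to compound for about 14 hours before viability readout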
[18] = Counterscreen for IDE inhibitors: Luminescence-based cell-based high throughput dose response assay to identify compounds that are cytotoxic to HEK cells. [Related pubchem assays: 434962 (Primary screen (IDE inhibitors in singlicate)), 449730 (Counterscreen (Cytotoxicity in triplicate)), 435028 (Confirmation (IDE inhibitors in triplicate)) …; type: functional; conditions: HEK293
[19] = biological target: T5, Insulin-degrading enzyme (Homo sapiens, UniProt P14735); test: Dose Response: Fluorescence polarization-based cell-based high throughput dose response assay for inhibitors of insulin-degrading enzyme (IDE). [Related pubchem assays: 434962 (Primary screen (IDE inhibitors in singlicate)), 449730 (Counterscreen (Cytotoxicity in triplicate)), 435028 (Confirmation (IDE inhibitors in triplicate)), 434984 (Summary …; type: functional
T5 sequence (P14735 whole entry): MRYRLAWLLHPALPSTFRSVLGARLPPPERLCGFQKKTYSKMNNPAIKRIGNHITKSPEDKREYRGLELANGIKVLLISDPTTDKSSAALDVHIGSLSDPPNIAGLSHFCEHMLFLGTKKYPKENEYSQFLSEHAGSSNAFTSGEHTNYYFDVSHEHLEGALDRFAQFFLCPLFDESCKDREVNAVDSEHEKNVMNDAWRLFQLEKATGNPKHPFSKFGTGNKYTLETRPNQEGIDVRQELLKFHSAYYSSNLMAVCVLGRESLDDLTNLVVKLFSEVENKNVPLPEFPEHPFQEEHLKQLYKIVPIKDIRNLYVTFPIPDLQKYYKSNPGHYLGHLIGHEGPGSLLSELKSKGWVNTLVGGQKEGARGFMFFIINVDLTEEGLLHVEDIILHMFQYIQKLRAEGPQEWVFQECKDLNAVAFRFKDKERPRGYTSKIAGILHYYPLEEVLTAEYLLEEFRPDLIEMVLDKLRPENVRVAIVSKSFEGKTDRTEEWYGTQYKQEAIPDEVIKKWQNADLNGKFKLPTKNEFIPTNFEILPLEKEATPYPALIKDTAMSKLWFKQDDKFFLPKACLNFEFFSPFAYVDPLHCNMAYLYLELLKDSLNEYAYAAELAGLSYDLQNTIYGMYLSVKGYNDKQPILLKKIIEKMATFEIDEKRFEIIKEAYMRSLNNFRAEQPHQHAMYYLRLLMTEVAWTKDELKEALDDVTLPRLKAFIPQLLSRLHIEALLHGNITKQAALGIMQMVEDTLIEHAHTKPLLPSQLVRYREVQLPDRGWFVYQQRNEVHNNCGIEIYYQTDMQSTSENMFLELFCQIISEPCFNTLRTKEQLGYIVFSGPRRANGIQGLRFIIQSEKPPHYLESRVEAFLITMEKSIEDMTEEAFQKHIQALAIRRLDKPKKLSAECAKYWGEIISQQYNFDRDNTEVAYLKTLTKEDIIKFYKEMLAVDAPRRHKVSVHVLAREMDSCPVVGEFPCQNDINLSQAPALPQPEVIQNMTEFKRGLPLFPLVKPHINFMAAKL
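Wherever AC50 is given: cells exposed to compound for roughly 70 hours or longer before luminescence read.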

Compound: NC(=O)c1sc(-c2ccsc2)cc1NS(=O)(=O)c1ccc(C(F)(F)F)cc1
IC50 [1]: 22.1 µM (active) | AC50 [2]: 11.7 µM (active)

IC50 [3]: 50 µM (inactive)
Compound: O=C(NCc1ccc2c(c1)OCO2)c1ccc2c(c1)OCCO2

Compound: CC(=O)N1c2ccc(S(=O)(=O)N3CCC(C(=O)Nc4cccc(C)n4)CC3)cc2CC1C (stereo unspecified)
IC50 [4]: 6.02 µM (active) | IC50 [5]: > 20 µM (inactive) | IC50 [6]: 8.99 µM (active) | EC50 [7]: 2.79 µM (active) | IC50 [8]: > 20 µM (inactive) | IC50 [9]: 12.4 µM (inactive) | IC50 [10]: > 80 µM (inactive) | IC50 [11]: 4.8 µM (active)

IC50 [12]: > 50 µM (inactive)
Compound: CN1CCN(C(=O)c2ccc3c(=O)n(Cc4ccc(Cl)cc4)c(=S)[nH]c3c2)CC1

Compound: COc1cc(C(N)=O)cc(Br)c1OC
IC50 [13]: 12.2 µM (active) | IC50 [14]: 9.8 µM (active)

Compound: CCOc1cc(-c2ccc(N)c(OCC)c2)ccc1N
IC50 [15]: 2.47 µM (active) | IC50 [16]: 12.3 µM (active)

IC50 [12]: > 50 µM (inactive)
Compound: C=CCSc1nnc(Cc2cc(O)nc(O)n2)n1-c1cc(C)ccc1C

IC50 [1]: 102 µM (active)
Compound: NC(=O)c1ccc(NC(=O)c2ccccc2S(=O)(=O)c2ccccc2[N+](=O)[O-])cc1

IC50 [12]: > 50 µM (inactive)
Compound: CC(=O)c1cccc(NS(=O)(=O)c2c(C)noc2C)c1

IC50 [1]: 68.4 µM (active)
Compound: COc1ccc(S(=O)(=O)N2CCC(C(=O)NCc3ccccc3)CC2)cc1OC

Compound: CCc1sc(C(=O)Nc2cccc(-n3cnnn3)c2)cc1C
IC50 [17]: > 80 µM (inactive) | IC50 [18]: 20.7 µM (not active) | IC50 [19]: 17.3 µM (not active)

Compound: CC(=O)c1cccc(OCC(=O)N2CCN(c3ccc(C(F)(F)F)cn3)CC2)c1
IC50 [18]: 19.4 µM (not active) | IC50 [19]: 19.2 µM (not active)

Compound: O=S(=O)(c1ccc(SCc2cccc(Cl)c2)nc1)N1CCCC1
IC50 [18]: 27.1 µM (not active) | IC50 [19]: > 55.9 µM (not active)

Compound: CC1CCC(C(C)C)C(OCC(O)C[N+]2(C)CCCCC2)C1 (stereo unspecified)
IC50 [13]: 3.66 µM (active) | IC50 [14]: 2.6 µM (active)

Compound: CC(C)(C)c1ccc(C(=O)ONC(=N)c2cccc([N+](=O)[O-])c2)cc1
IC50 [4]: > 20 µM (inactive) | IC50 [11]: > 20 µM (inactive)
